Consider 13 compounds from patent US20230406885A1, “CYCLIC PEPTIDES FOR TRAPPING INTERLEUKIN-1 BETA” (MERCK SHARP & DOHME LLC, priority 2022, published 2023).

Molecules are shown by their SMILES. *1 amine or outer side, *2 acyl side, *3 side chain or, on linkers, in order; H or OH if unused. Where a SMILES comes first, the peptide text is derived from it. [ ]: non-standard residue; d: D form. Trp(4-Cl)(βS-Me) = C[C@@H](c1c[nH]c2cccc(Cl)c12)[C@H](N)C(=O)O; Bip(4'-COOH) = N[C@@H](Cc1ccc(-c2ccc(C(=O)O)cc2)cc1)C(=O)O; X8 = O=C([C@H](CCc1cccc(C(F)(F)F)c1)N[*:1])[*:2]; Phe(4-COOH) = N[C@@H](Cc1ccc(C(=O)O)cc1)C(=O)O; X10 = O=C([C@H](CC1CCC(F)(F)CC1)N[*:1])[*:2]; Pro(4R-NH2) = N[C@H]1CN[C@H](C(=O)O)C1; X7 = O=C([C@H](CCN1CCOCC1)N[*:1])[*:2]; AEF = NCCOc1ccc(C[C@H](N)C(=O)O)cc1; hTyr = N[C@@H](CCc1ccc(O)cc1)C(=O)O; hPhe = N[C@@H](CCc1ccccc1)C(=O)O; 4Pal = N[C@@H](Cc1ccncc1)C(=O)O; Dap(Me2) = CN(C)C[C@H](N)C(=O)O; dDab = NCC[C@@H](N)C(=O)O; hSer = N[C@@H](CCO)C(=O)O; dNMeA = CN[C@H](C)C(=O)O; Dab = NCC[C@H](N)C(=O)O; Nva = CCC[C@H](N)C(=O)O; Dap = NC[C@H](N)C(=O)O

In the experiment the target is T1, Recombinant human IL-1β (Homo sapiens, UniProt P01584).
T1 construct: purchased BioLegend 579404
T1 sequence (P01584 117-269): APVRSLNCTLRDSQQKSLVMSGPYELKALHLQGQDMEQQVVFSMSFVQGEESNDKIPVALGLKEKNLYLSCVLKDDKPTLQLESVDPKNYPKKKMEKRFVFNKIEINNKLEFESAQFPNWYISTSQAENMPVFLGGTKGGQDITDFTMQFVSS
In words: IL-6 assay in MRC5 cells: inhibition of IL-1β induced IL-6 secretion (AlphaLISA). It counts as cell-based. The conditions noted are these: inhibition of IL-1β induced IL-6 secretion in MRC5 cells; read-out: MRC5 IC50. The method, boiled down:
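IL-1β at 2×EC80 in seeding medium (EMEM, 0.025% BSA) preincubated 1 h at ambient temperature with compound, then 3000 MRC5 cells/well added and incubated overnight at 37 °C, 5% CO2. IL-6 in conditioned medium quantified by AlphaLISA; IC50 from 4-parameter logistic fit.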
On to `CC(=O)NCCOc1ccc(C[C@@H]2NC(=O)[C@H](CCc3ccc(O)cc3)NC(=O)[C@@H](C)NC(=O)[C@H](CC(C)C)NC(=O)[C@H](Cc3ccncc3)NC(=O)[C@H](Cc3ccc(-c4ccc(C(=O)O)cc4)cc3)NC(=O)CNC(=O)[C@@H](C)N(C)C(=O)[C@H](CC(=O)O)NC(=O)[C@H]([C@@H](C)c3c[nH]c4cccc(Cl)c34)NC(=O)[C@@H]3C[C@@H](N)CN3C(=O)CNC(=O)[C@H](Cc3ccc(C(=O)O)cc3)NC(=O)[C@H](Cc3c[nH]c4ccccc34)NC2=O)cc1` [Example 135] (cyclo([AEF](Ac)W[Phe(4-COOH)]G[Pro(4R-NH2)][Trp(4-Cl)(βS-Me)]D[dNMeA]G[Bip(4'-COOH)][4Pal]L[dA][hTyr])), for which the IC50 (as a rule, the concentration that inhibits the measured activity by half) turned out to be 0.31 nM.

With `CCC[C@@H]1NC(=O)[C@H](Cc2ccncc2)NC(=O)[C@H](Cc2ccc(-c3ccc(C(=O)O)cc3)cc2)NC(=O)CNC(=O)[C@@H](C)N(C)C(=O)[C@H](CC(=O)O)NC(=O)[C@H]([C@@H](C)c2c[nH]c3cccc(Cl)c23)NC(=O)[C@@H]2C[C@@H](N)CN2C(=O)CNC(=O)[C@H](Cc2ccc(C(=O)O)cc2)NC(=O)[C@H](Cc2c[nH]c3ccccc23)NC(=O)[C@H](Cc2ccc(OCCNC(C)=O)cc2)NC(=O)[C@H](CC2CCC(F)(F)CC2)NC(=O)[C@@H](C)NC1=O` [Example 136] (cyclo([AEF](Ac)W[Phe(4-COOH)]G[Pro(4R-NH2)][Trp(4-Cl)(βS-Me)]D[dNMeA]G[Bip(4'-COOH)][4Pal][Nva][dA][X10])), the IC50 amounted to 0.396 nM.

For the compound `CC(=O)NCCOc1ccc(C[C@@H]2NC(=O)[C@H](CCc3cccc(C(F)(F)F)c3)NC(=O)[C@@H](C)NC(=O)[C@H](CC(C)C)NC(=O)[C@H](CCCCN)NC(=O)[C@H](Cc3ccc(-c4ccc(C(=O)O)cc4)cc3)NC(=O)CNC(=O)[C@@H](C)N(C)C(=O)[C@H](CC(=O)O)NC(=O)[C@H]([C@@H](C)c3c[nH]c4cccc(Cl)c34)NC(=O)[C@@H]3C[C@@H](N)CN3C(=O)CNC(=O)[C@H](Cc3ccc(C(=O)O)cc3)NC(=O)[C@H](Cc3c[nH]c4ccccc34)NC2=O)cc1` [Example 137] (cyclo([AEF](Ac)W[Phe(4-COOH)]G[Pro(4R-NH2)][Trp(4-Cl)(βS-Me)]D[dNMeA]G[Bip(4'-COOH)]KL[dA][X8])), the IC50 was 0.0938 nM.

`CC(=O)NCCOc1ccc(C[C@@H]2NC(=O)[C@H](CCc3ccc(O)cc3)NC(=O)[C@@H](C)NC(=O)[C@H](CO)NC(=O)[C@H](CCCCN)NC(=O)[C@H](Cc3ccc(-c4ccc(C(=O)O)cc4)cc3)NC(=O)CNC(=O)[C@@H](C)N(C)C(=O)[C@H](CC(=O)O)NC(=O)[C@H]([C@@H](C)c3c[nH]c4cccc(Cl)c34)NC(=O)[C@@H]3C[C@@H](N)CN3C(=O)CNC(=O)[C@H](Cc3ccc(C(=O)O)cc3)NC(=O)[C@H](Cc3c[nH]c4ccccc34)NC2=O)cc1` [Example 138] (cyclo([AEF](Ac)W[Phe(4-COOH)]G[Pro(4R-NH2)][Trp(4-Cl)(βS-Me)]D[dNMeA]G[Bip(4'-COOH)]KS[dA][hTyr])): the IC50 turned out to be 0.214 nM.

In the case of `CC(=O)NCCOc1ccc(C[C@@H]2NC(=O)[C@H](CCc3ccc(O)cc3)NC(=O)[C@@H](CCN)NC(=O)[C@H](CO)NC(=O)[C@H](CCCCN)NC(=O)[C@H](Cc3ccc(-c4ccc(C(=O)O)cc4)cc3)NC(=O)CNC(=O)[C@@H](C)N(C)C(=O)[C@H](CC(=O)O)NC(=O)[C@H]([C@@H](C)c3c[nH]c4cccc(Cl)c34)NC(=O)[C@@H]3C[C@@H](N)CN3C(=O)CNC(=O)[C@H](Cc3ccc(C(=O)O)cc3)NC(=O)[C@H](Cc3c[nH]c4ccccc34)NC2=O)cc1` [Example 139] (cyclo([AEF](Ac)W[Phe(4-COOH)]G[Pro(4R-NH2)][Trp(4-Cl)(βS-Me)]D[dNMeA]G[Bip(4'-COOH)]KS[dDab][hTyr])), the IC50 is 0.133 nM.

Consider `CC(=O)NCCOc1ccc(C[C@@H]2NC(=O)CNC(=O)[C@@H](C)NC(=O)[C@H](CCN3CCOCC3)NC(=O)[C@H](Cc3c[nH]c4ccccc34)NC(=O)[C@H](Cc3ccc(-c4ccc(C(=O)O)cc4)cc3)NC(=O)CNC(=O)[C@@H](C)N(C)C(=O)[C@H](CC(=O)O)NC(=O)[C@H]([C@@H](C)c3c[nH]c4cccc(Cl)c34)NC(=O)[C@@H]3C[C@@H](N)CN3C(=O)CNC(=O)[C@H](Cc3ccc(C(=O)O)cc3)NC(=O)[C@H](Cc3c[nH]c4ccccc34)NC2=O)cc1` [Example 140] (cyclo([AEF](Ac)W[Phe(4-COOH)]G[Pro(4R-NH2)][Trp(4-Cl)(βS-Me)]D[dNMeA]G[Bip(4'-COOH)]W[X7][dA]G)), for which the IC50 was 0.515 nM.

As for `CC(=O)NCCOc1ccc(C[C@@H]2NC(=O)[C@H](CCc3ccc(O)cc3)NC(=O)[C@@H](C)NC(=O)[C@H](CCN3CCOCC3)NC(=O)[C@H](Cc3c[nH]c4ccccc34)NC(=O)[C@H](Cc3ccc(-c4ccc(C(=O)O)cc4)cc3)NC(=O)CNC(=O)[C@@H](C)N(C)C(=O)[C@H](CC(=O)O)NC(=O)[C@H]([C@@H](C)c3c[nH]c4cccc(Cl)c34)NC(=O)[C@@H]3C[C@@H](N)CN3C(=O)CNC(=O)[C@H](Cc3ccc(C(=O)O)cc3)NC(=O)[C@H](Cc3c[nH]c4ccccc34)NC2=O)cc1` [Example 141] (cyclo([AEF](Ac)W[Phe(4-COOH)]G[Pro(4R-NH2)][Trp(4-Cl)(βS-Me)]D[dNMeA]G[Bip(4'-COOH)]W[X7][dA][hTyr])), the IC50 amounted to 0.177 nM.

Consider `CC(=O)NCCOc1ccc(C[C@@H]2NC(=O)[C@H](CCc3ccccc3)NC(=O)[C@@H](C)NC(=O)[C@H](CCN)NC(=O)[C@H](Cc3c[nH]c4ccccc34)NC(=O)[C@H](Cc3ccc(-c4ccc(C(=O)O)cc4)cc3)NC(=O)CNC(=O)[C@@H](C)N(C)C(=O)[C@H](CC(=O)O)NC(=O)[C@H]([C@@H](C)c3c[nH]c4cccc(Cl)c34)NC(=O)[C@@H]3C[C@@H](N)CN3C(=O)CNC(=O)[C@H](Cc3ccc(C(=O)O)cc3)NC(=O)[C@H](Cc3c[nH]c4ccccc34)NC2=O)cc1` [Example 142] (cyclo([AEF](Ac)W[Phe(4-COOH)]G[Pro(4R-NH2)][Trp(4-Cl)(βS-Me)]D[dNMeA]G[Bip(4'-COOH)]W[Dab][dA][hPhe])), for which the IC50 was 0.159 nM.

As to `CC(=O)NCCOc1ccc(C[C@@H]2NC(=O)[C@H](CCc3ccc(O)cc3)NC(=O)[C@@H](C)NC(=O)[C@H](CCN)NC(=O)[C@H](Cc3c[nH]c4ccccc34)NC(=O)[C@H](Cc3ccc(-c4ccc(C(=O)O)cc4)cc3)NC(=O)CNC(=O)[C@@H](C)N(C)C(=O)[C@H](CC(=O)O)NC(=O)[C@H]([C@@H](C)c3c[nH]c4cccc(Cl)c34)NC(=O)[C@@H]3C[C@@H](N)CN3C(=O)CNC(=O)[C@H](Cc3ccc(C(=O)O)cc3)NC(=O)[C@H](Cc3c[nH]c4ccccc34)NC2=O)cc1` [Example 143] (cyclo([AEF](Ac)W[Phe(4-COOH)]G[Pro(4R-NH2)][Trp(4-Cl)(βS-Me)]D[dNMeA]G[Bip(4'-COOH)]W[Dab][dA][hTyr])), the IC50 was 0.23 nM.

For `CC(=O)NCCOc1ccc(C[C@@H]2NC(=O)[C@H](CCc3ccccc3)NC(=O)[C@@H](C)NC(=O)[C@H](CN)NC(=O)[C@H](Cc3c[nH]c4ccccc34)NC(=O)[C@H](Cc3ccc(-c4ccc(C(=O)O)cc4)cc3)NC(=O)CNC(=O)[C@@H](C)N(C)C(=O)[C@H](CC(=O)O)NC(=O)[C@H]([C@@H](C)c3c[nH]c4cccc(Cl)c34)NC(=O)[C@@H]3C[C@@H](N)CN3C(=O)CNC(=O)[C@H](Cc3ccc(C(=O)O)cc3)NC(=O)[C@H](Cc3c[nH]c4ccccc34)NC2=O)cc1` [Example 144] (cyclo([AEF](Ac)W[Phe(4-COOH)]G[Pro(4R-NH2)][Trp(4-Cl)(βS-Me)]D[dNMeA]G[Bip(4'-COOH)]W[Dap][dA][hPhe])), the IC50 worked out at 0.0749 nM.

Turning to `CC(=O)NCCOc1ccc(C[C@@H]2NC(=O)[C@H](CCc3ccc(O)cc3)NC(=O)[C@@H](C)NC(=O)[C@H](CN)NC(=O)[C@H](Cc3c[nH]c4ccccc34)NC(=O)[C@H](Cc3ccc(-c4ccc(C(=O)O)cc4)cc3)NC(=O)CNC(=O)[C@@H](C)N(C)C(=O)[C@H](CC(=O)O)NC(=O)[C@H]([C@@H](C)c3c[nH]c4cccc(Cl)c34)NC(=O)[C@@H]3C[C@@H](N)CN3C(=O)CNC(=O)[C@H](Cc3ccc(C(=O)O)cc3)NC(=O)[C@H](Cc3c[nH]c4ccccc34)NC2=O)cc1` [Example 145] (cyclo([AEF](Ac)W[Phe(4-COOH)]G[Pro(4R-NH2)][Trp(4-Cl)(βS-Me)]D[dNMeA]G[Bip(4'-COOH)]W[Dap][dA][hTyr])), the IC50 is 0.0748 nM.

As to `CC(=O)NCCOc1ccc(C[C@@H]2NC(=O)[C@H](CCc3ccc(O)cc3)NC(=O)[C@@H](C)NC(=O)[C@H](CN(C)C)NC(=O)[C@H](Cc3c[nH]c4ccccc34)NC(=O)[C@H](Cc3ccc(-c4ccc(C(=O)O)cc4)cc3)NC(=O)CNC(=O)[C@@H](C)N(C)C(=O)[C@H](CC(=O)O)NC(=O)[C@H]([C@@H](C)c3c[nH]c4cccc(Cl)c34)NC(=O)[C@@H]3C[C@@H](N)CN3C(=O)CNC(=O)[C@H](Cc3ccc(C(=O)O)cc3)NC(=O)[C@H](Cc3c[nH]c4ccccc34)NC2=O)cc1` [Example 146] (cyclo([AEF](Ac)W[Phe(4-COOH)]G[Pro(4R-NH2)][Trp(4-Cl)(βS-Me)]D[dNMeA]G[Bip(4'-COOH)]W[Dap(Me2)][dA][hTyr])), the IC50 came out at 0.114 nM.

As to `COCC[C@@H]1NC(=O)[C@H](Cc2c[nH]c3ccccc23)NC(=O)[C@H](Cc2ccc(-c3ccc(C(=O)O)cc3)cc2)NC(=O)CNC(=O)[C@@H](C)N(C)C(=O)[C@H](CC(=O)O)NC(=O)[C@H]([C@@H](C)c2c[nH]c3cccc(Cl)c23)NC(=O)[C@@H]2C[C@@H](N)CN2C(=O)CNC(=O)[C@H](Cc2ccc(C(=O)O)cc2)NC(=O)[C@H](Cc2c[nH]c3ccccc23)NC(=O)[C@H](Cc2ccc(OCCNC(C)=O)cc2)NC(=O)[C@H](CCc2ccc(O)cc2)NC(=O)[C@@H](C)NC1=O` [Example 147] (cyclo([AEF](Ac)W[Phe(4-COOH)]G[Pro(4R-NH2)][Trp(4-Cl)(βS-Me)]D[dNMeA]G[Bip(4'-COOH)]W[hSer](Me)[dA][hTyr])), the half-inhibitory concentration (IC50) amounted to 0.0926 nM.
